# Results: publication PMC10527014 (Antiviral research, 2023)
# “Also recorded” adds a separate entry of the source.
# Key:
# [1] = target: T1, pregnane X-receptor (PXR) (Homo sapiens, UniProt O75469); assay: PXR agonist activity
# T1 sequence (O75469 1-434): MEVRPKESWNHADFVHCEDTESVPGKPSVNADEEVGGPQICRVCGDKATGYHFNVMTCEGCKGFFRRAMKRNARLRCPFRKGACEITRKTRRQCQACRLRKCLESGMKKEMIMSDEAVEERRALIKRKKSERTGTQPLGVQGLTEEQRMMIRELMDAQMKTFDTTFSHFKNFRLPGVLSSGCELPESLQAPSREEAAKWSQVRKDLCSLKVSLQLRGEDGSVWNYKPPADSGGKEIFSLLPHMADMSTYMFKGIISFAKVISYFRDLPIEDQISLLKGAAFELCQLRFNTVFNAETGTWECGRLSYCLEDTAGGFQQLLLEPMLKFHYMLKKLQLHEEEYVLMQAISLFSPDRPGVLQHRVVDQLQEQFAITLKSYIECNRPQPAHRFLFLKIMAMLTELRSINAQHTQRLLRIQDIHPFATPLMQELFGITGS
# EV-D68 US/KY/14-18953 = assay: Virus yield reduction assay, EV-D68 US/KY/14-18953; format: cell-based; conditions: read-out: 90% Effective concentration EC90, EV-D68 US/KY/14-18953, RD
# CYP3A4 = CYP3A4 (Homo sapiens, UniProt P08684)
# Chain of CYP3A4 (P08684 whole entry): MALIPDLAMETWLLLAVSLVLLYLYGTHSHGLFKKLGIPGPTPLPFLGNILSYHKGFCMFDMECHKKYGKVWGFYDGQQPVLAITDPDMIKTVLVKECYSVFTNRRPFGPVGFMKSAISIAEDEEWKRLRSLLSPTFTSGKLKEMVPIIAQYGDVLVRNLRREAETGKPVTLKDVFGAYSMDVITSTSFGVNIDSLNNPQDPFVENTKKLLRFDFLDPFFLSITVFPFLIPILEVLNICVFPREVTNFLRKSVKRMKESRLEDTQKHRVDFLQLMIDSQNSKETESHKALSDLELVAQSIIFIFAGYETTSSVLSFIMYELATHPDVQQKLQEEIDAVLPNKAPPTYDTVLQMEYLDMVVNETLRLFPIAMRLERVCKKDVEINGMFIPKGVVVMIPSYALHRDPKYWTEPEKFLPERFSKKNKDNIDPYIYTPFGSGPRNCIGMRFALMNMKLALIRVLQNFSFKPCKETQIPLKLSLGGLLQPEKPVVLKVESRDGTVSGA
# [2] = test system: Human Echovirus-30 Bastianni; assay: Virus yield reduction assay, Human Echovirus-30 Bastianni; format: cell-based; conditions: read-out: 90% Effective concentration EC90, RD, lowest concentration tested 0.032 μM
# mouse-adapted CVB5 = assay: Mouse model of CVB5-induced pancreatitis; format: in vivo, BALB/c mice
# Polio virus 1 Mahoney = format: cell-based; conditions: read-out: 50% Effective concentration EC50, Vero 76, CPE
# MDCK = assay: Cytotoxicity; format: cell-based; conditions: read-out: 50% Cytotoxic concentration CC50, line of Influenza H1N1
# hERG = hERG (Homo sapiens, UniProt Q12809); assay: hERG inhibition; conditions: read-out: hERG inhibition IC50
# Chain of hERG (Q12809 whole entry): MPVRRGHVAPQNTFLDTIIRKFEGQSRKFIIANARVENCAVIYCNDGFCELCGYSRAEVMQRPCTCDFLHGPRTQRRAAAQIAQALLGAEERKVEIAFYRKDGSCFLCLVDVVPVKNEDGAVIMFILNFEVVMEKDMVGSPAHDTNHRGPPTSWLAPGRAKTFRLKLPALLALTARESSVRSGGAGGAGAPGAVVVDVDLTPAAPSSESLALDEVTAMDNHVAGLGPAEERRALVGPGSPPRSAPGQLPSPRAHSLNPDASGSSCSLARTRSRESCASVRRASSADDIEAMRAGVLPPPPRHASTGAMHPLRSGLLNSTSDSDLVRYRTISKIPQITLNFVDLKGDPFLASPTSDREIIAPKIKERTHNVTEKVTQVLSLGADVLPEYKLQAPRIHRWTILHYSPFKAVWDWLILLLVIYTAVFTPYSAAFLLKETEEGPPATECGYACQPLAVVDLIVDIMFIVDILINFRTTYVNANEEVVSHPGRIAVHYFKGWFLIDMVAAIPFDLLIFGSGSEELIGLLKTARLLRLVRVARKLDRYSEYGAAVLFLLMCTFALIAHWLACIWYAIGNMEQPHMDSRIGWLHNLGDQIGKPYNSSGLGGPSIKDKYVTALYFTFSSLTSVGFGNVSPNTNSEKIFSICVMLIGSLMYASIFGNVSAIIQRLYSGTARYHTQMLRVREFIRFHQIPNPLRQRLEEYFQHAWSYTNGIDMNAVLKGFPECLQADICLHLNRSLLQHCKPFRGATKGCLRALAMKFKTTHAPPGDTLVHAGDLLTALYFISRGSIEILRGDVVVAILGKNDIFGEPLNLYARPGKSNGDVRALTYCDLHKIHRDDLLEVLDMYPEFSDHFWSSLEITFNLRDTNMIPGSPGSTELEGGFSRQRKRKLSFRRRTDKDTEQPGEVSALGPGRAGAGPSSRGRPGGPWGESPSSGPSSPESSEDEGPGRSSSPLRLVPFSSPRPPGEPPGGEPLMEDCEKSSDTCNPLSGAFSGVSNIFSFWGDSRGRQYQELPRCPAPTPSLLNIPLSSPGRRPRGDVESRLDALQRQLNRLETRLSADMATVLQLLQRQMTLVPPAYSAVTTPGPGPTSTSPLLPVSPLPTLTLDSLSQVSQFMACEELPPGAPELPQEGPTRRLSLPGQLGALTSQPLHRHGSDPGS
# Human plasma stability = format: in vitro ADME; conditions: @ 5 hr, 37°C
# [3] = test system: EV-D68 MP30 PP (mouse-adapted US/MO/14-18949); assay: EV-D68 respiratory infection model in four-week-old AG129 mice; format: in vivo
# EV-D68 US/MO/14-18949 = conditions: read-out: 50% Effective concentration EC50; EV-D68 US/MO/14-18949, RD; n=3, 4 concentrations (log10 dilution series)
# CYP1A2 = CYP1A2 (Homo sapiens, UniProt P05177); assay: CYP inhibition, CYP1A2; format: in vitro ADME; conditions: read-out: CYP inhibition
# Chain of CYP1A2 (P05177 whole entry): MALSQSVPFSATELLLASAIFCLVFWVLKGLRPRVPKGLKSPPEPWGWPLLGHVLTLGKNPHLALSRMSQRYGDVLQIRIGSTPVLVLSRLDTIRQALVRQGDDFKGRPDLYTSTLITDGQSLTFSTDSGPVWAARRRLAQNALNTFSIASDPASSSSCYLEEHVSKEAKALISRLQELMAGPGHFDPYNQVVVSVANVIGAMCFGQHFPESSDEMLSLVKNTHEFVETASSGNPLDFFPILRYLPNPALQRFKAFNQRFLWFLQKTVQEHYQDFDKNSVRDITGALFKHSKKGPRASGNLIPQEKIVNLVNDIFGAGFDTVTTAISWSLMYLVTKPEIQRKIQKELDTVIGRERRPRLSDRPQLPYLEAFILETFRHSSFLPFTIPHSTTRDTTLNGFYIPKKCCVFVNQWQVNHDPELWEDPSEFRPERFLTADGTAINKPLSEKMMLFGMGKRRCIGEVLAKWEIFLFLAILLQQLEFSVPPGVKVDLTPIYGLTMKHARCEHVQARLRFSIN
# Coxsackie B3 HA 201933 = assay: Virus yield reduction assay, Coxsackie B3 HA 201933; format: cell-based; conditions: read-out: 90% Effective concentration EC90; Coxsackie B3 HA 201933, Vero 76, virus yield reduction
# [4] = test system: Human Echovirus-30 Bastianni; conditions: read-out: 50% Effective concentration EC50, RD, lowest concentration tested 0.032 μM
# [5] = test system: Influenza H1N1 California/07/2009; assay: CPE reduction assay, Influenza H1N1 California/07/2009; format: cell-based; conditions: read-out: 50% Effective concentration EC50, Influenza H1N1 California/07/2009, MDCK
# [6] = Maximum tolerated dose study in AG129 mice; format: in vivo
# [7] = test system: EV-D68 MP30 PP (mouse-adapted); assay: EV-D68 neurological infection; format: in vivo, AG129 mice; conditions: for Mean day of death: placebo 5.5 days
compound,measurement,setting,value
"Cc1cc(-c2noc(C(F)(F)F)n2)ccc1OCCCc1cc(C(=O)N(C)C)no1 [compound 11526092, 3-(3-methyl-4-(3-(3-N,N-dimethylcarbamoyl-isoxazol-5-yl)propoxy)phenyl)-5-trifluoromethyl-1,2,4-oxadiazole]",PXR agonism (in words),[1],neither 11526092 nor pleconaril is an agonist
same,EC50,[1]; read-out: PXR EC50,> 100 µM
same,EC90,EV-D68 US/KY/14-18953,0.078 µM
same,Effect on CYP3A4 (in words),"CYP3A4; human liver microsomes, at higher concentrations (Fig. S21)",activation (or autoactivation) of CYP3A4; also recorded: * CYP3A4 demonstrates activation with 11526092
same,IC50,"CYP3A4; read-out: CYP inhibition, CYP3A4",> 50 µM
same,EC90,[2],< 0.032 µM
same,Relative fold gene expression in the pancreas (qPCR),"mouse-adapted CVB5; 100 mg/kg per day, Fig. 5B",statistically significant (P≤0.05) decrease
same,Histology of pancreatic tissue,"mouse-adapted CVB5; CVB5-infected mice, Fig. S20",no signs of tissue damage
same,EC50,Polio virus 1 Mahoney,0.57 µM
same,CC50,MDCK,44.8 µM
same,IC50,hERG,> 100 µM
same,Human plasma stability,Human plasma stability,"93.9% @ 5 hr, 37 °C"
same,Lung concentration of IFN-γ,"[3]; 10 mg/kg, day 1",reductions
same,Lung concentration of IL-10,"[3]; 10 mg/kg, day 5",increase
same,Lung virus titer,"[3]; 30 mg dose, day 5 p.i., P≤0.05 vs placebo",significant reduction
same,Lung concentration of MIP-1α,"[3]; 30 mg/kg, day 5",increase
same,Lung concentration of MCP-1,"[3]; 100 mg/kg, day 1",reductions
same,Lung concentration of IL-1α,"[3]; 100 mg/kg, day 3",increase
same,Lung concentration of IL-1β,"[3]; 100 mg/kg, day 3",increase
same,Lung concentration of IL-4,"[3]; 100 mg/kg, day 3",increase
same,Lung concentration of IL-6,"[3]; 100 mg/kg, day 3",increase
same,Protection from weight loss (percentage of initial body weight),"[3]; 100 mg/kg/d PO, P<0.05, Fig. S16",significant protection from weight loss
same,Decrease of viremia,[3]; abstract,3 log
same,Lung concentration of RANTES,"[3]; all doses, day 1, P≤0.01 - P≤0.0001",significantly reduced
same,Lung concentration of GM-CSF,"[3]; all doses, day 1, P≤0.01 - P≤0.001",significantly reduced
same,Lung concentration of IL-3,"[3]; all doses, day 1, P≤0.05",significantly reduced
same,Lung concentration of IL-5,"[3]; all doses, day 1, P≤0.05",significantly reduced
same,Virus titers in the blood (viremia),"[3]; all doses, days 1 and 3 p.i., P≤0.0001",reduce viremia
same,Lung virus titers,"[3]; day 3 p.i., this study",did not demonstrate any antiviral activity
same,Reduction in lung titer,"[3]; day 5, abstract",1 log
same,EC50,EV-D68 US/MO/14-18949,< 0.1 µM
same,IC50,CYP1A2,> 50 µM
same,EC90,Coxsackie B3 HA 201933,7.78 µM
same,EC50,[4],< 0.032 µM
same,EC50,[5],25.9 µM
same,Maximum tolerated dose,[6]; given IP,> 10 mg/kg
same,Maximum tolerated dose,[6]; given PO,> 100 mg/kg
same,Mean day of death,[7]; 1 mg 11526092-treated group,6.3 days
same,Mean day of death,[7]; 3 mg 11526092-treated group,5.4 days
same,Mean day of death,[7]; 10 mg 11526092-treated group,4.3 days
same,Efficacy in the acute flaccid myelitis neurological infection model,[7]; abstract,did not show efficacy
same,Neurological scores,[7]; post-challenge study,none of the 1526092-treated mice showed a statistically significant reduction in neurological scores
same,Protection from challenge infection (in words),[7]; pre-challenge study,None of the pre-challenge 1526092-treated mice were protected from challenge infection
